From PubChem BioAssay (NCI)
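Step 1: Grow cells in 96-well plates. Step 2: Expose to compound for 48 hours at 5 concentrations. Step 3: Interpolate endpoints linearly; if unreached, use highest concentration. TGI: total growth inhibition.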

Legend:
Assay in all cases: NCI tumour cell line growth inhibition, 48 h
A498 renal = test system: A498 renal
DU-145 prostate = test system: DU-145 prostate
EKVX NSCLC = test system: EKVX NSCLC
HL-60(TB) leukemia = test system: HL-60(TB) leukemia
HT29 colon = test system: HT29 colon
KM12 colon = test system: KM12 colon
M14 melanoma = test system: M14 melanoma
MALME-3M melanoma = test system: MALME-3M melanoma
MOLT-4 leukemia = test system: MOLT-4 leukemia
NCI-H226 lung = test system: NCI-H226 lung
OVCAR-8 ovarian = test system: OVCAR-8 ovarian
PC-3 prostate = test system: PC-3 prostate
RXF 393 renal = test system: RXF 393 renal
SK-MEL-5 melanoma = test system: SK-MEL-5 melanoma
SR leukemia = test system: SR leukemia
SW-620 colon = test system: SW-620 colon
UACC-62 melanoma = test system: UACC-62 melanoma
HOP-92 NSCLC = test system: HOP-92 NSCLC
K-562 leukemia = test system: K-562 leukemia
BT-549 breast = test system: BT-549 breast

Row | Structure (SMILES) | TGI (A498 renal) [µM] | TGI (DU-145 prostate) [µM] | TGI (EKVX NSCLC) [µM] | TGI (HL-60(TB) leukemia) [µM] | TGI (HT29 colon) [µM] | TGI (KM12 colon) [µM] | TGI (M14 melanoma) [µM] | TGI (MALME-3M melanoma) [µM] | TGI (MOLT-4 leukemia) [µM] | TGI (NCI-H226 lung) [µM] | TGI (OVCAR-8 ovarian) [µM] | TGI (PC-3 prostate) [µM] | TGI (RXF 393 renal) [µM] | TGI (SK-MEL-5 melanoma) [µM] | TGI (SR leukemia) [µM] | TGI (SW-620 colon) [µM] | TGI (UACC-62 melanoma) [µM] | TGI (HOP-92 NSCLC) [µM] | TGI (K-562 leukemia) [µM] | TGI (BT-549 breast) [µM]
1 | CCOC(=O)C(/C=N\C(=S)Nc1ccc(Cl)c(Cl)c1)=C(/O)c1ccccc1 | 20.4 | > 100 | > 100 | > 100 | > 100 | > 100 | > 100 | > 100 | > 100 | > 100 | > 100 | > 100 | > 100 | > 100 | > 100 | > 100 | > 100 | – | – | –
2 | CC(C)CC1C(=O)NCCC(NC(=O)C(N)Cc2ccc(O)cc2)C(=O)NC(Cc2ccccc2)C(=O)NC(Cc2ccccc2)NC1=O (configuration not stated) | > 100 | > 100 | > 100 | > 100 | > 100 | > 100 | > 100 | > 100 | > 100 | > 100 | > 100 | > 100 | > 100 | > 100 | > 100 | > 100 | > 100 | > 100 | > 100 | –
3 | Nc1nc(N)c(NC(=O)CCCO)c(=O)[nH]1 | > 100 | > 100 | > 100 | – | > 100 | > 100 | > 100 | > 100 | > 100 | > 100 | > 100 | > 100 | > 100 | > 100 | – | > 100 | > 100 | > 100 | > 100 | > 100
4 | CC(=O)OCC1OC(n2c(-c3ccccc3)c(C(C)=O)c(-c3ccc(Cl)cc3)c(C#N)c2=S)C(OC(C)=O)C(OC(C)=O)C1OC(C)=O (configuration not stated) | > 100 | > 100 | > 100 | > 100 | > 100 | > 100 | > 100 | > 100 | > 100 | > 100 | > 100 | 8.46 | > 100 | > 100 | > 100 | > 100 | > 100 | 71.5 | > 100 | –
5 | Clc1ccc2c(c1)C1C(CO2)C(c2ccccc2)=NN1c1ccccc1 (configuration not stated) | > 100 | – | 68.6 | 53.1 | > 100 | > 100 | – | > 100 | 62.6 | – | > 100 | – | > 100 | – | – | > 100 | – | 58.9 | 93.8 | –
6 | COc1ccc(C(=O)Cc2c(C(=O)c3ccccc3)c3ccccc3n2C(=O)c2ccccc2)cc1 | – | – | – | > 100 | > 100 | > 100 | > 100 | > 100 | > 100 | > 100 | > 100 | – | – | 64.3 | > 100 | > 100 | > 100 | > 100 | > 100 | –
7 | O=C(NC(CS)C(=O)O)c1cccc2c(=O)c3ccccc3[nH]c12 (configuration not stated) | > 100 | > 100 | > 100 | > 100 | > 100 | > 100 | > 100 | > 100 | > 100 | > 100 | > 100 | > 100 | – | > 100 | > 100 | > 100 | > 100 | > 100 | > 100 | –
8 | CNC(=O)c1n[nH]nc1Sc1c([N+](=O)[O-])ncn1C | > 100 | > 100 | > 100 | – | > 100 | > 100 | > 100 | – | > 100 | – | > 100 | > 100 | > 100 | > 100 | – | > 100 | > 100 | > 100 | > 100 | > 100
9 | CC(=O)OC[C@]1(O)CC[C@@]23CC1C[C@@H]2CCC1C(C)(C)CCC[C@@]13C (some centres not stated) | – | – | – | 20.4 | 25.7 | 26.1 | 26.9 | 29.5 | 15.8 | 32.7 | 32 | – | 22.9 | 28.2 | 23.6 | 22.5 | 26.2 | 27.8 | 20.3 | –
10 | N#Cc1c(O)c(N=Nc2ccccc2F)c(=O)n2c1[nH]c1ccccc12 | > 100 | > 100 | > 100 | > 100 | > 100 | – | > 100 | > 100 | – | > 100 | > 100 | > 100 | > 100 | > 100 | – | > 100 | > 100 | 60.3 | > 100 | > 100
11 | N=C(N)N1CCC(N2CCOCC2)CC1 | > 100 | > 100 | > 100 | > 100 | > 100 | > 100 | > 100 | > 100 | > 100 | > 100 | > 100 | – | > 100 | > 100 | > 100 | > 100 | > 100 | > 100 | > 100 | –
12 | Cn1nc2ccc3nccc(N4CCN(CCO)CC4)c3c2n1 | > 100 | > 100 | – | – | > 100 | > 100 | > 100 | > 100 | > 100 | > 100 | > 100 | > 100 | > 100 | > 100 | – | > 100 | > 100 | – | > 100 | > 100
13 | O=C(CC(C(=O)c1ccco1)c1ccsc1)c1ccco1 (configuration not stated) | > 100 | > 100 | > 100 | > 100 | > 100 | > 100 | > 100 | – | > 100 | > 100 | > 100 | – | > 100 | > 100 | > 100 | > 100 | > 100 | > 100 | > 100 | –
14 | N#Cc1c(Cl)cccc1Oc1ccc(S(=O)(=O)/N=C(\NN)Nc2ccc(Cl)cc2)cc1 | > 100 | 86.9 | 68.3 | 47.7 | 96.2 | 42.7 | 52.1 | – | 34.4 | 60.9 | > 100 | 80.8 | 47.1 | 31.3 | – | > 100 | 38.8 | 54 | > 100 | 67.8
15 | COC(=O)N1CCc2c(nc(N(C)CCO)[nH]c2=O)C1 | > 100 | – | > 100 | > 100 | > 100 | > 100 | > 100 | > 100 | > 100 | > 100 | > 100 | – | > 100 | > 100 | > 100 | > 100 | > 100 | > 100 | > 100 | –
16 | CC(=O)OC1COC(Nc2ccc(C(C)=O)cc2)C(OC(C)=O)C1OC(C)=O (configuration not stated) | > 100 | – | > 100 | – | > 100 | > 100 | > 100 | > 100 | > 100 | > 100 | > 100 | – | > 100 | > 100 | > 100 | > 100 | > 100 | > 100 | > 100 | –
17 | [O-][n+]1onc2c1CCC(=N\O)/C2=N/Nc1ccccc1 | > 100 | > 100 | > 100 | > 100 | > 100 | > 100 | > 100 | > 100 | > 100 | > 100 | > 100 | > 100 | > 100 | > 100 | > 100 | > 100 | > 100 | – | > 100 | –
18 | CC(C)=NN/C(=N\S(=O)(=O)c1ccc(C)cc1)Nc1ccc(Cl)cc1 | > 100 | > 100 | > 100 | > 100 | > 100 | > 100 | > 100 | > 100 | > 100 | > 100 | > 100 | > 100 | – | > 100 | – | > 100 | > 100 | > 100 | > 100 | > 100
19 | COc1cc(C)c(/C=C/C(=O)N2C(=O)OC[C@@H]2c2ccccc2)c(C)c1 | > 100 | > 100 | > 100 | > 100 | 63.2 | > 100 | > 100 | > 100 | 85.8 | > 100 | > 100 | > 100 | > 100 | > 100 | – | > 100 | – | > 100 | > 100 | –
20 | O=C(COc1ccc(OCC(=O)N2C(=O)CSC2=Nc2ccccc2)cc1)N1C(=O)CSC1=Nc1ccccc1 | > 100 | > 100 | > 100 | – | 41.2 | 44.3 | > 100 | 86.2 | > 100 | > 100 | – | > 100 | > 100 | 33.3 | – | > 100 | 36 | > 100 | > 100 | > 100
21 | COc1ccc2nc3ccc(OC)cc3c(SCc3ccc([N+](=O)[O-])cc3)c2c1 | > 100 | > 100 | > 100 | > 100 | > 100 | > 100 | > 100 | > 100 | > 100 | > 100 | > 100 | > 100 | > 100 | – | > 100 | > 100 | > 100 | > 100 | > 100 | –
22 | CCN=C(NNc1ccc([N+](=O)[O-])cc1)P(=O)(OC(C)C)OC(C)C | > 100 | – | > 100 | > 100 | – | > 100 | > 100 | > 100 | > 100 | > 100 | > 100 | – | – | > 100 | > 100 | > 100 | > 100 | > 100 | > 100 | –
23 | CC(C)(C)C(=O)C(C(=O)C(C)(C)C)C(=O)C(C)(C)C | > 100 | > 100 | > 100 | > 100 | > 100 | > 100 | > 100 | > 100 | > 100 | > 100 | > 100 | > 100 | > 100 | > 100 | > 100 | > 100 | – | > 100 | > 100 | –
24 | CS/C1=C(\c2ccc(C)cc2)N(c2ccccc2)C(=O)C(=O)N(c2ccccc2)/C(c2ccc(C)cc2)=C(/SC)SS1 | > 100 | > 100 | > 100 | > 100 | > 100 | – | > 100 | > 100 | > 100 | – | > 100 | > 100 | – | – | > 100 | > 100 | > 100 | > 100 | > 100 | –
25 | NC(=S)N/N=C(\Cc1nc2ccc(Cl)cc2[nH]c1=O)C(=O)Nc1ccc(Cl)cc1 | – | > 100 | > 100 | > 100 | > 100 | > 100 | > 100 | – | > 100 | > 100 | > 100 | > 100 | > 100 | > 100 | – | > 100 | > 100 | > 100 | – | > 100
26 | COc1ccc(C2CC(c3ccccc3)=Nc3c(-c4ccccc4)nnn32)cc1 (configuration not stated) | > 100 | > 100 | – | > 100 | > 100 | > 100 | > 100 | – | > 100 | > 100 | > 100 | > 100 | – | > 100 | > 100 | > 100 | > 100 | – | > 100 | –
27 | Nc1ccc2nc(Nc3ccc(F)cc3)cnc2c1 | – | – | > 100 | > 100 | > 100 | > 100 | > 100 | > 100 | > 100 | > 100 | > 100 | – | – | > 100 | > 100 | > 100 | – | – | > 100 | –
